Data set [1] concerns UM-SCC-22B cells. Description: Efflux experiment. The class given is cell-based, human. Conditions: UM-SCC-22B cells loaded 1 h at 37°C, then serum-free DMEM. As for the experimental part: (§1) For cell uptake measurement, UM-SCC-22B cells were seeded into a 24-well plate at a density of 1×10^5 cells per well and incubated with 18.5 kBq (0.5 μCi)/well of [^18F]FP-Met-pep1 at 37°C for 15, 30 and 60 min. Tumor cells were then washed twice with cold PBS and harvested by adding 250 μl of 0.1 N NaOH. Internalization assay was preformed similarly to the procedure described above. After 15, 30 and 60 min incubation of UM-SCC-22B cells with [^18F]FP-Met-pep1 at 37°C, the cells were washed twice with cold PBS and then incubated for 1 min with acid-washing-buffer (50 mM glycine, 0.1 M NaCl, pH = 2.8) to remove surface bound radioactive ligand. Thereafter, the cells were washed twice with cold PBS and harvested by adding 250 μl of 0.1 N NaOH. The blocking assay was preformed similarly to the procedure described above except that the unlabeled c-Met binding peptide was added into the wells (500 μg/well) and incubated for 15 min at 37°C before adding [^18F]FP-Met-pep1. For efflux experiment, all UM-SCC-22B cells in a 24-well plate were initially incubated with 18.5 kBq (0.5 μCi)/well of [^18F]FP-Met-pep1 at 37°C for 1 hour. […] The cell suspensions were collected and measured in a gamma counter and the cell uptake, internalization and efflux were expressed as the percentage of the added dose (%AD) after decay correction to EOB. […]

The test system of data set [2] is UM-SCC-22B cells. Description: Cell uptake and blocking of [18F]FP-Met-pep1. The class given is cell-based, human. Here is the method: as §1
Data set [3] relates to UM-SCC-22B tumor-bearing mice. Description: MicroPET imaging, ROI quantification. The format is in vivo. Here is the method:
(§2) The human head and neck squamous carcinoma (HNSCC) cell line UM-SCC-22B (obtained from the University of Michigan) was used in this study. The cells were maintained in DMEM supplemented with 10% fetal bovine serum (FBS), 1% glutamine, 100 unit/ml penicillin, and […] streptomycin (Invitrogen, CA). Subcutaneous UM-SCC-22B tumor model was established in 4 to 6 weeks old male athymic nu/nu mice (Harlan Laboratories). Typically, 5 × 10^6 cells suspended in 50 μl of PBS were injected in the right or left front shoulder. Tumor growth was followed by caliper measurements of perpendicular diameters of the tumor. The tumor volume was estimated by the formula: tumor volume = a×b^2 /2, where a and b were the tumor length and width, respectively, in millimeters. Small animal PET studies were performed when the tumor volume reached 100 to 200 mm^3.
(§3) To perform a microCT scan by a high-resolution Inveon MicroCT scanner (Siemens Medical Solutions) before microPET scan, an anesthetized nude mouse bearing UM-SCC-22B tumor was mounted on a turntable bed that could be moved automatically in the axial direction. Whole body CT acquisition parameters were as follows: voltage 70 kVp, current 400 μA, angular sampling 1° per projection for a full 360° scan, and effective pixel size 58 μm. Scan time was approximately 12 min. The image was reconstructed in real-time by a modified Feldkamp cone bean algorithm with a Shepp-Logan filter and appropriate center offset determined prior to scanning. PET scans were performed using an Inveon microPET scanner (Siemens Medical Solutions). Tumor-bearing mice were anesthetized using isoflurane/O2 (1.5–2% v/v) and intravenously injected with 3.7 MBq (100 μCi) of [^18F]FP-Met-pep1 in a volume of 100 μl saline. For blocking experiments, [^18F]FP-Met-pep1 was co-injected with 500 μg of unlabeled Met-pep1 peptide. Each group contained four mice. The images were reconstructed by a three-dimensional ordered subsets expectation maximization (3D-OSEM) algorithm with maximum a posteriori (MAP) algorithm and the frame rates were 10 × 30s, 5 × 60s, 5 × 120s and 10 × 240s, and no correction was applied for attenuation or scatter. Static images at 1 h time point were also acquired as 10-min static images for region of interest (ROI) quantification. Image analysis was done using ASI Pro VMTM software. PET/CT images were co-registered and fused automatically with ASI software. For each microPET scan, three-dimensional ROIs were drawn over the tumor, liver, kidney, and muscle on decay-corrected whole-body coronal images. The average radioactivity concentration within a tumor or an organ was obtained from mean pixel values within the ROI volume, which were converted to counts per milliliter by using a pre-determined conversion factor.

The nature of data set [4]: MicroPET imaging, ROI quantification. The format is in vivo, mice. The conditions noted are these: male, athymic nu/nu, mouse, iv, total radioactivity, 3.7 MBq i.v., mean ± SD, n = 4. Here is the method:
as §2, §3

Data set [5] concerns UM-SCC-22B cells. Description: Internalization assay (acid wash). The format is cell-based, human. Conditions: 37°C, early phase, acid wash pH 2.8. Here is the method:
as §1

Data set [6] in a line: Ex vivo biodistribution (gamma-counting). The class given is in vivo, mice. Conditions: male, athymic nu/nu, mouse, iv, total radioactivity, 30 min after injection, mean ± SD, n = 4. As for the experimental part: as §2
After microPET imaging, the blood of mice bearing UM-SCC-22B tumor xenografts was drawn from the orbital sinus, then mice were sacrificed by cervical dislocation and selected organs were excised. Blood, tumor, and major organs tissues were collected and weighed (wet weight). The radioactivity in each tissue was measured using a gamma-counter (Packard Instrument). Distribution of activity was calculated as percentage of injected dose per gram of organ (%ID/g). For each mouse, the radioactivity of the tissue samples was calibrated against a known aliquot of the injected dose and normalized to a body mass of 30 g. Values were expressed as mean ± SD for a group of four animals.

SMILES strings stand for the structures. Residues, ends and D or L forms follow the SMILES beside them. *: point of attachment. Propanoyl(2-F) = CC(F)C(=O)*

`CC(C)C[C@H](NC(=O)[C@@H](N)Cc1ccc(O)cc1)C(=O)N[C@@H](Cc1ccccc1)C(=O)N[C@@H](CO)C(=O)N[C@H](C(=O)N[C@@H](Cc1c[nH]cn1)C(=O)N[C@@H](Cc1c[nH]c2ccccc12)C(=O)N1CCC[C@H]1C(=O)N1CCC[C@H]1C(=O)N[C@@H](CC(C)C)C(=O)N[C@@H](CCCCNC(=O)C(C)F)C(=O)N[C@@H](C)C(=O)O)C(C)C` (some centres unmarked) [[^18F]FP-Met-pep1] (H-YLFSVHWPPLK(Propanoyl(2-F))A-OH): in the data set on UM-SCC-22B cells [1] (15 min), the “tracer effluxed out of the cells” value is “approximately 47%”. For the same molecule, in the data set on UM-SCC-22B cells [1] (end of incubation (60 min)), the “radiotracer remained bound with the cells” value is reported as “about 36%”. Further, the “cell uptake in presence of unlabeled Met-pep1 (blocking)” value in the data set on UM-SCC-22B cells [2] (500 μg/well unlabeled Met-pep1 pre-incubated 15 min at 37°C) is listed as “dramatic inhibition of cell uptake”. For the same molecule, the “cell uptake (percentage of added dose)” value in the data set on UM-SCC-22B cells [2] (18.5 kBq (0.5 μCi)/well, 37°C, 30 min incubation (peak), gamma counter, mean ± SD, triplicate wells) was determined as 34.52 ± 1.34%. Further, the “muscle uptake (microPET)” value in data set [3] (all timepoints (30, 60, 120 min)) was “very low uptake”. In data set [3] (within 2 h after injection, dynamic microPET (S1 Fig)), the “radioactivity excreted, primarily through the renal pathway” value is recorded as “about 65%”. Further, the tissue uptake at 0.5 h in data set [4] (liver, 30 min post-injection, read-out: liver uptake (microPET)) turned out to be 11.5 ± 0.78 %ID/g; in data set [4] (tumor (UM-SCC-22B xenograft), UM-SCC-22B tumor, 30 min post injection, read-out: tumor uptake (microPET)), 4.72 ± 0.67 %ID/g; in data set [6] (blood, 3.7 MBq, without blocking, read-out: blood tracer concentration), 1.55 ± 0.48 %ID/g; in data set [6] (blood, with 500 μg unlabeled peptide, read-out: blood tracer concentration, after blocking) it was 2.85 ± 0.76 %ID/g; in data set [6] (kidney, 3.7 MBq, blocking state not clearly stated, read-out: kidney tracer accumulation (ex vivo)), 10.5 ± 0.53 %ID/g; in data set [6] (liver, 3.7 MBq, blocking state not clearly stated, read-out: liver tracer accumulation (ex vivo)), 5.58 ± 0.45 %ID/g. Moreover, the tissue uptake at 0.5 h is 4.58 ± 0.59 %ID/g in data set [6] (tumor (UM-SCC-22B xenograft), 3.7 MBq, absence of unlabeled peptide, read-out: tumor uptake (tissue sampling, gamma-counting)) and 0.88 ± 0.35 %ID/g in data set [6] (tumor (UM-SCC-22B xenograft), presence of 500 μg unlabeled peptide, read-out: tumor uptake (tissue sampling, gamma-counting), blocked). Moreover, the tissue uptake at 1 h in data set [4] (tumor (UM-SCC-22B xenograft), UM-SCC-22B tumor, 60 min post injection) was 3.83 ± 0.55 %ID/g. The tissue uptake at 2 h in data set [4] (tumor (UM-SCC-22B xenograft), UM-SCC-22B tumor, 120 min post injection) is 3.11 ± 0.25 %ID/g. Moreover, in the data set with UM-SCC-22B cells [5], the “fraction of observed uptake due to internalization” value was “Approximately 2/3”.

The values above are taken from PMC5997322, “Imaging c-Met expression using 18F-labeled binding peptide in human cancer xenografts” (PLoS ONE, 2018).
